A word on the ED50: it is the midpoint of the dose-response relation. For orientation: LD50 means the dose at which mortality reaches 50%. Higher therefore signals a less toxic substance.

The values that follow come from patent US4150153A, “1-(Naphthylethyl)imidazole derivatives” (Syntex (U.S.A.) Inc., priority 1977, dated 1979).

Each structure is given as a SMILES string.

The subject of data set [1] is male Hilltop ICR-derived mice. Put plainly: Maximal Electroshock Test in Mice. In kind it is in vivo. Particulars: intraperitoneally 15 minutes prior to transcorneal maximal electroshock (50 milliamps, 0.2 seconds), antagonizing tonic extension, in parentheses 95% confidence limits; for ED50: Mus musculus, ip, 0.25 h. The protocol:
Maximal Electroshock Test in Mice
This test was performed in the standard manner, essentially as described by Swinyard et al., J. Pharm.
Groups of 10 male Hilltop ICR-derived mice weighing 20-30 grams were dosed intraperitoneally with a solution or suspension of drug in saline 15 minutes prior to a transcorneal maximal electroshock (50 milliamps, 0.2 seconds).
(In general: The maximal electroshock test induces tonic seizures with an electrical stimulus.)

Data set [2] is described as follows: lethalities in mice after a single intraperitoneal dose. Particulars: mouse, in vivo, ip, single dose intraperitoneally, lethalities determined after five days, doses 1-1,000 mg/kg. The protocol:
Groups of 3 male ICR derived mice weighing 18-24 grams were given a single dose of compound intraperitoneally. The following doses were employed: 1, 3, 10, 30, 100, 300 or 1,000 mg/kg. After five days lethalities were determined.

As to `OC(Cn1ccnc1)c1cccc2ccccc12` (stereo not drawn) [1-[2-hydroxy-2-(1-naphthyl)ethyl]imidazole], the ED50 in data set [1] was 37 mg/kg. This molecule registered an LD50 at 120 h in data set [2] of 300 to 1000 mg/kg.

Consider `CCSC(Cn1ccnc1)(SCC)c1ccc2ccccc2c1` [1-[2,2-bis(ethylthio)-2-(2-naphthyl)ethyl]imidazole], for which the ED50 in data set [1] was found to be 35 mg/kg.

As to `c1ccc2cc(C3(Cn4ccnc4)OCCO3)ccc2c1` [1-[2,2-ethylenedioxy-2-(2-naphthyl)ethyl]imidazole], the median effective dose (ED50) in data set [1] stood at 12 mg/kg. The LD50 at 120 h in data set [2] was 100 to 300 mg/kg.

In the case of `O=C(Cn1ccnc1)c1ccc2ccccc2c1` [1-(2-naphthoylmethyl)imidazole], the ED50 in data set [1] amounted to 23 mg/kg. The LD50 at 120 h in data set [2] was in the range of 100 to 300 mg/kg.

As to `CC1(C)COC(Cn2ccnc2)(c2ccc3ccccc3c2)OC1` [1-[2,2-(2,2-dimethyl-1,3-propylenedioxy)-2-(2-naphthyl)ethyl]imidazole], the ED50 in data set [1] came to 26 mg/kg.

Turning to `O=C(Cn1ccnc1)c1cccc2ccccc12` [1-(1-naphthoylmethyl)imidazole], in data set [1], the ED50 was ~60 mg/kg. In addition, in data set [2], the LD50 at 120 h lay within 100 to 300 mg/kg.

For `CC1CSC(Cn2ccnc2)(c2ccc3ccccc3c2)S1.Cl` (stereo not drawn) [1-[2,2-(1,2-propylenedithio)-2-(2-naphthyl)ethyl]imidazole hydrochloride], the “ED50 (95% confidence limits)” value in data set [1] was 65 (55-73) mg/kg.

Consider `c1ccc2c(C3(Cn4ccnc4)OCCO3)cccc2c1` [1-[2,2-ethylenedioxy-2-(1-naphthyl)ethyl]imidazole], for which, in data set [1], the ED50 is 19 mg/kg.

For the molecule `OC(Cn1ccnc1)c1ccc2ccccc2c1` (stereo not drawn) [1-[2-hydroxy-2-(2-naphthyl)ethyl]imidazole], the ED50 in data set [1] turned out to be 74 mg/kg. In data set [2], this molecule registered an LD50 at 120 h of 300 to 1000 mg/kg.

As for `CC1CCOC(Cn2ccnc2)(c2ccc3ccccc3c2)O1` (stereo not drawn) [1-[2,2-(1-methyl-1,3-propylenedioxy)-2-(2-naphthyl)ethyl]imidazole], the ED50 in data set [1] worked out at 19 mg/kg.

`c1ccc2cc(C3(Cn4ccnc4)OCCCO3)ccc2c1` [1-[2,2-(1,3-propylenedioxy)-2-(2-naphthyl)ethyl]imidazole]: in data set [1], the 50% effective dose (ED50) is 17 mg/kg.

As for `CSC(Cn1ccnc1)(SC)c1ccc2ccccc2c1` [1-[2,2-bis(methylthio)-2-(2-naphthyl)ethyl]imidazole], in data set [1], the ED50 amounted to 32 mg/kg.

Turning to `c1ccc2cc(C3(Cn4ccnc4)SCCS3)ccc2c1` [1-[2,2-ethylenedithio-2-(2-naphthyl)ethyl]imidazole], in data set [1], the median effective dose (ED50) came to 26 mg/kg.
